Measurements taken from PMC11074326, “A Toxoplasma gondii O-glycosyltransferase that modulates bradyzoite cyst wall rigidity is distinct from host homologues” (Nature Communications, 2024).

Molecular target: T1, TxgGalNAc-T3 (Toxoplasma gondii, UniProt A0A125YMZ8)
T1 construct: gene TGME49_318730; luminal region (catalytic and lectin domains), aa 74-635; secreted from Pichia pastoris SMD1168; His tag removed with TEV protease
Assay: X-ray crystal structure
Format: binding
Details: crystals with Mn2+, UDP-GalNAc-F and glycopeptide (CST1.4 or Muc5AC series), pH 9.5; active site, UDP coordinates Mn2+A; added as UDP-GalNAc-F, only UDP modelled

T1 sequence (A0A125YMZ8 entry or part of it): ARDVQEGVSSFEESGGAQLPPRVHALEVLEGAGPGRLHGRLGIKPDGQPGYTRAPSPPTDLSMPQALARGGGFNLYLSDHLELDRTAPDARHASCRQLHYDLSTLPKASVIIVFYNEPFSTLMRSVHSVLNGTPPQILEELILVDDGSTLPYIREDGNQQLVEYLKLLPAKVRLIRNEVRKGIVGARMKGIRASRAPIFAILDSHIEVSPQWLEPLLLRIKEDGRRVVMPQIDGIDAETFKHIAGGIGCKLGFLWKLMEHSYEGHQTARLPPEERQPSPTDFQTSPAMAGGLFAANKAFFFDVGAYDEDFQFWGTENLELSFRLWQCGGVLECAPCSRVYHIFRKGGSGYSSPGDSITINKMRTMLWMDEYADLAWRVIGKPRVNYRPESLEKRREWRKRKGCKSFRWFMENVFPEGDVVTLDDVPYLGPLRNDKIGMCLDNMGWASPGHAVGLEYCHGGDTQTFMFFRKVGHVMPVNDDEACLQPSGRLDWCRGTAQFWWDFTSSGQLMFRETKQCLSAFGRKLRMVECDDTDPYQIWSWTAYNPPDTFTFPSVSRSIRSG

## O=c1ccn([C@@H]2O[C@H](COP(=O)(O)OP(=O)(O)O)[C@@H](O)[C@H]2O)c(=O)[nH]1 [UDP]
  X-ray crystal structure: We modeled UDP into the active site but did not include GalNAc-F
